Test results published in ChEMBL document CHEMBL4152321, “Synthesis and antiplasmodial activity of glyco-conjugate hybrids of phenylhydrazono-indolinones and glycosylated 1,2,3-triazolyl-methyl-indoline-2,3-diones” (Eur J Med Chem, 2018).

Experiments:
[1] = Cytotoxicity against African green monkey Vero cells after 3 days by resazurin dye based fluorescence assay; format: cell-based; details: chlorocebus sabaeus
Plasmodium falciparum [2] = test: Antiplasmodial activity against chloroquine-resistant Plasmodium falciparum K1 infected in human erythrocytes after 72 hrs by SYBR Green 1 staining based fluorescence assay; format: functional, organism-based; details: K1, 72 h
[3] = Selectivity index, ratio of CC50 for African green monkey Vero cells to IC50 for chloroquine-sensitive Plasmodium falciparum 3D7 infected in human erythrocytes; format: toxicity, cell-based; details: read-out: Ratio CC50/IC50
Plasmodium falciparum [4] = test: Antiplasmodial activity against chloroquine-sensitive Plasmodium falciparum 3D7 infected in human erythrocytes after 72 hrs by SYBR Green 1 staining based fluorescence assay; format: functional, organism-based; details: 3D7, 72 h
[5] = Selectivity index, ratio of CC50 for African green monkey Vero cells to IC50 for chloroquine-resistant Plasmodium falciparum K1 infected in human erythrocytes; format: toxicity, cell-based; details: read-out: Ratio CC50/IC50

Row | Structure (SMILES) | CC50 at 72 h [1] | IC50 (Plasmodium falciparum [2]) | selectivity ratio [3] | IC50 (Plasmodium falciparum [4]) | selectivity ratio [5]
1 | COc1ccc(N/N=C2\C(=O)N(Cc3cn(O[C@@H]4O[C@H](CO)[C@H](O)[C@H](O)[C@H]4O)nn3)c3ccccc32)cc1 | 76.2 µM | 5.2 µM | 22 | 3.46 µM | 14.7
2 | O=C1/C(=N\Nc2cccc(Cl)c2)c2ccccc2N1Cc1cn(O[C@@H]2O[C@H](CO)[C@H](O)[C@H](O)[C@H]2O)nn1 | 84.5 µM | 2.62 µM | 12.5 | 6.74 µM | 32.2
3 | N#Cc1ccc(N/N=C2\C(=O)N(Cc3cn(O[C@@H]4O[C@H](CO)[C@H](O)[C@H](O)[C@H]4O)nn3)c3ccccc32)cc1 | 93.7 µM | 3.3 µM | 12.2 | 7.65 µM | 28.4
4 | O=C1/C(=N\Nc2ccc(F)cc2)c2ccccc2N1Cc1cn(O[C@@H]2O[C@H](CO)[C@H](O)[C@H](O)[C@H]2O)nn1 | 92.1 µM | 3.23 µM | 13.9 | 6.64 µM | 28.5
